Experimental data taken from patent publication US20220162169A1, “6-OXO-1,6-DIHYDROPYRIDAZINE PRODRUG DERIVATIVE, PREPARATION METHOD THEREFOR, AND APPLICATION THEREOF IN MEDICINE” (JIANGSU HENGRUI MEDICINE CO., LTD., priority 2019, published 2022).
In brackets after ≈: the same amount, converted by molar mass. Counter-ions that a name gives are not always drawn. Values belong to the molecule of their own block, whether it stands above or below them.

Test: Solubility in PBS solution (pH 7.4) at room temperature
Assay type: physicochemical
Details: for solubility at 24 h: PBS solution (pH 7.4), aqueous buffer, kinetic from dmso stock, PBS pH 7.4, room temperature, 24 hours shaking, 1% DMSO, average of two measurements, read-out: Solubility in PBS pH7.4; for Solubility in the PBS solution (pH 7.4), in words: room temperature, PBS pH 7.4
Method: Test Example 1. Solubility of the Compound of the Present Disclosure in PBS Solution (pH 7.4) at Room Temperature
2.1 Formulation of the PBS solution (pH 7.4): 0.57 g of NaH2PO42.H2O, 5.55 g of Na2HPO4.12H2O and 6.48 g of NaCl were weighed, followed by the addition of ultra-pure water. The pH was adjusted to 7.4±0.05 with 1 M NaOH or 1 M HCl. Water was added until the volume reached 1 L. The PBS solution was stored in a refrigerator at 4° C. (the storage life was 6 months).
2.2 Formulation of the solution of the compound in PBS 7.4: An appropriate amount of the test compound was weighed, and dissolved in DMSO or a mixed solution of DMSO:acetonitrile:ethanol (1:1:1) to obtain a 10 mM stock solution of the test compound. 10 μL of the stock solution of the test compound and 990 μL of the PBS solution (pH 7.4) were precisely measured and placed in a 2 mL sample vial and mixed well, and the DMSO concentration of the final solution was 1% (v/v). This solution was formulated in duplicate, shaken on a plate bed at room temperature for 24 hours, and centrifuged at 5000 rpm for 20 minutes. The supernatant was analyzed by the liquid chromatograph.
2.3 Formulation of the reference solution: 10 μL of the stock solution of the test sample (concentration: 10 mM, dissolved in DMSO) and 990 μL of an organic mixed solvent (usually DMSO:acetonitrile:ethanol=1:1:1) were precisely measured and placed in a 2 mL sample vial, and mixed well to obtain a clear 100 μM sample solution. The solution was filtered through a 0.45 μm organic phase microporous filter membrane, and the filtrate was analyzed by the liquid chromatograph.
Solubility (μM)=peak area of the sample/peak area of the reference*concentration of the reference (μM)*sample solution dilution factor
The average of two measurements was used as the final solubility.

SMILES: Cc1cc(F)ccc1Oc1cc(C(F)(F)F)c(Cl)cc1C(=O)Nc1cnn(COS(=O)(=O)O)c(=O)c1 [Example 8, (4-(5-Chloro-2-(4-fluoro-2-methylphenoxy)-4-(trifluoromethyl)benzamido)-6-oxopyridazin-1(6H)-yl)methyl hydrogen sulfate]
solubility at 24 h: 707 µM

SMILES: Cc1cc(F)ccc1Oc1cc(C(F)(F)F)c(Cl)cc1C(=O)Nc1cnn(COC(=O)/C=C/C(=O)O)c(=O)c1 [Example 9, (E)-4-((4-(5-Chloro-2-(4-fluoro-2-methylphenoxy)-4-(trifluoromethyl)benzamido)-6-oxopyridazin-1(6H)-yl)methoxy)-4-oxobut-2-enoic acid]
solubility at 24 h: 63.5 µM (≈ 36.2 µg/mL)

SMILES: Cc1cc(F)ccc1Oc1cc(C(F)(F)F)c(Cl)cc1C(=O)Nc1cnn(COC(=O)CC(=O)O)c(=O)c1 [Example 10, 3-((4-(5-Chloro-2-(4-fluoro-2-methylphenoxy)-4-(trifluoromethyl)benzamido)-6-oxopyridazin-1(6H)-yl)methoxy)-3-oxopropanoic acid]
solubility at 24 h: 147 µM (≈ 82 µg/mL)

SMILES: [2H]C([2H])([2H])Oc1cc(F)ccc1Oc1cc(C(F)(F)F)c(Cl)cc1C(=O)Nc1cnn(COS(=O)(=O)O)c(=O)c1 [Example 12, (4-(5-Chloro-2-(4-fluoro-2-(methoxy-d3)phenoxy)-4-(trifluoromethyl)benzamido)-6-oxopyridazin-1(6H)-yl)methyl hydrogen sulfate]
solubility at 24 h: 96.2 µM

SMILES: [2H]C([2H])([2H])Oc1cc(F)ccc1Oc1cc(C(F)(F)F)c(Cl)cc1C(=O)Nc1cnn(COC(=O)/C=C/C(=O)O)c(=O)c1 [Example 13, (E)-4-((4-(5-Chloro-2-(4-fluoro-2-(methoxy-d3)phenoxy)-4-(trifluoromethyl)benzamido)-6-oxopyridazin-1(6H)-yl)methoxy)-4-oxobut-2-enoic acid]
solubility at 24 h: 63.6 µM (≈ 37.4 µg/mL)

Second part, the molecule after the results:

solubility at 24 h: 0.5 µM (≈ 0.221 µg/mL)
Solubility in the PBS solution (pH 7.4), in words: poor
SMILES: Cc1cc(F)ccc1Oc1cc(C(F)(F)F)c(Cl)cc1C(=O)Nc1cn[nH]c(=O)c1 [Compound 1h, 5-Chloro-2-(4-fluoro-2-methylphenoxy)-N-(6-oxo-1,6-dihydropyridazin-4-yl)-4-(trifluoromethyl)benzamide]

solubility at 24 h: 0.44 µM (≈ 0.201 µg/mL)
Solubility in the PBS solution (pH 7.4), in words: poor
SMILES: COc1cc(F)ccc1Oc1cc(C(F)(F)F)c(Cl)cc1C(=O)Nc1cn[nH]c(=O)c1 [Compound 6c, 5-Chloro-2-(4-fluoro-2-methoxyphenoxy)-N-(6-oxo-1,6-dihydropyridazin-4-yl)-4-(trifluoromethyl)benzamide]

solubility at 24 h: 1.26 µM (≈ 0.581 µg/mL)
Solubility in the PBS solution (pH 7.4), in words: poor
SMILES: [2H]C([2H])([2H])Oc1cc(F)ccc1Oc1cc(C(F)(F)F)c(Cl)cc1C(=O)Nc1cn[nH]c(=O)c1 [Compound 7d, 5-Chloro-2-(4-fluoro-2-(methoxy-d3)phenoxy)-N-(6-oxo-1,6-dihydropyridazin-4-yl)-4-(trifluoromethyl)benzamide]
